Source: article PMC10861852, “Loss of activation by GABA in vertebrate delta ionotropic glutamate receptors” (Proceedings of the National Academy of Sciences of the …, 2024)
Changes are numbered by the printed parent chain.

What was measured:
RatGluD2^5x = molecular target: T1, RatGluD2^5x (Rattus norvegicus, UniProt Q63226, A686S/K694R/N720P/P806D/Y613F); test: Two-electrode voltage clamp, responses to ligands in mutant-expressing oocytes; type: cell-based; details: ligands 30 mM
T1 construct: expressed in transfected cells; host or cells: Xenopus laevis oocytes injected with mRNA
T1 sequence (Q63226 24-1007 Y613F/A686S/K694R/N720P/P806D): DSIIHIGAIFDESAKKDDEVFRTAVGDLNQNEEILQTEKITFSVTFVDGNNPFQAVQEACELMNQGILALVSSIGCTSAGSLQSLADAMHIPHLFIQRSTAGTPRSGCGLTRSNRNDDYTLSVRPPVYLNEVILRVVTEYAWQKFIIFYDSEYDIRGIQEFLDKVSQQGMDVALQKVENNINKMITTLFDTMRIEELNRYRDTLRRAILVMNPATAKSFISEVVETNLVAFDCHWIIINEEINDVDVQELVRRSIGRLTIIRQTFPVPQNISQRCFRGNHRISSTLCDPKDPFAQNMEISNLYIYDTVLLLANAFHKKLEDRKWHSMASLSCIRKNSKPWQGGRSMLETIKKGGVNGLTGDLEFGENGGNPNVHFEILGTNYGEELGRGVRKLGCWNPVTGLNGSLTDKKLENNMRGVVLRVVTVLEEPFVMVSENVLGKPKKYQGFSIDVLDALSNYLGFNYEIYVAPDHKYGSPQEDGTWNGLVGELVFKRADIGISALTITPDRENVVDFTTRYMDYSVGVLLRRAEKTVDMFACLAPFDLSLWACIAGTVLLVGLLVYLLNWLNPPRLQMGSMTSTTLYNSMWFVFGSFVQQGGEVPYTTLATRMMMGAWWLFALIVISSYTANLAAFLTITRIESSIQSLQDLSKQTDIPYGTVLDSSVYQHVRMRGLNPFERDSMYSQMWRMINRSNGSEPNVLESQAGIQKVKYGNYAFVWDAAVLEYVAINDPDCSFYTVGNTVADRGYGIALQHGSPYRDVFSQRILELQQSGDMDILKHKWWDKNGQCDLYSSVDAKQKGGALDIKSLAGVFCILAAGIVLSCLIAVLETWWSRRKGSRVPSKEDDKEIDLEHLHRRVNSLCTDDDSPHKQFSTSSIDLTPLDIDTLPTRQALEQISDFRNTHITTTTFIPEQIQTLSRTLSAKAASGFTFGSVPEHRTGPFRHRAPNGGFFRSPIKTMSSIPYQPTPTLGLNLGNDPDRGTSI
From the text: (§1) If the 10 mutations discussed above drove the loss of function in vertebrate delta iGluRs, one might expect that the latter could be “reawakened” via active invertebrate delta iGluR-like mutations here. We therefore engineered mutant RatGluD2 iGluRs to contain at these positions the equivalent residues from starfish delta iGluRs. These mutants were RatGluD2^5x, containing Y613F, A686S, K694R, N720P, and P806D substitutions (pink in Fig. 6A), and RatGluD2^9x, additionally containing N763K, D753Q, Q786M, and R787V (cyan in Fig. 6A).
(§2) Fig. 6. AcaGluD-like mutations alter RatGluD2 receptor function. (A) D-serine bound RatGluD2 from X-ray structure PDB:2v3u ([13]). Selected amino acid residues are indicated, colored, shown as sticks, and labeled 5×, 9×, 10×, and/or Lc according to the multiple mutants they were incorporated into. 10× mutant included 10×, 9×, and 5× positions. 9× included 9× and 5×. 5× included only 5×. […] (B–E) Example current responses to different neurotransmitter ligands (30 mM) and to pore blocker pentamidine (Pent, 100 μM) in oocytes expressing indicated RatGluD2 mutants. The dashed line indicates zero current baseline. (F) Individual (dots) and mean (columns) responses to ligands in oocytes expressing indicated RatGluD2 mutants (n = 4 to 5).

RatGluD2^9x = molecular target: T2, RatGluD2^9x (Rattus norvegicus, UniProt Q63226, A686S/D753Q/K694R/N720P/N763K/P806D/Q786M/R787V/Y613F); test: as above; type: cell-based; details: ligands 30 mM
T2 construct: expressed in transfected cells; host or cells: Xenopus laevis oocytes injected with mRNA
T2 sequence (Q63226 24-1007 Y613F/A686S/K694R/N720P/D753Q/N763K/Q786M/R787V/P806D): T1 sequence (Q63226 24-1007 Y613F/A686S/K694R/N720P/P806D) with D730Q, N740K, Q763M, R764V
From the text: as §1, §2

Structure (SMILES) | current response to ligand (RatGluD2^5x) | current response to ligand (RatGluD2^9x)
NCCCC(=O)O [GABA, γ-aminobutyric acid] | no responses | no responses
NCC(=O)O [glycine] | no responses | no responses
N[C@H](CO)C(=O)O [D-serine] | no responses | no responses
